Patent publication US20220265629A1, “TREATMENT OF SYSTOLIC DYSFUNCTION AND HEART FAILURE WITH REDUCED EJECTION FRACTION WITH THE COMPOUND (R)-4-(1-((3-(DIFLUOROMETHYL)-1-METHYL-1H-PYRAZOL-4-YL)SULFONYL)-1-FLUOROETHYL)-N-(ISOXAZOL-3-YL)PIPERIDINE-1-CARBOXAMIDE” (MyoKardia, Inc., priority 2019, published 2022)
Several values for one entry are separate records, joined by “and”; a condition that tells them apart may be missing. Equal values may be shown once.

Experiment: HFrEF study Part 2 (MAD Cohorts A-D): plasma pharmacokinetics
Type: in vivo, human
Conditions: for AUC_TAU: steady state
Text: This was a randomized, parallel-group, DB, placebo-controlled, adaptive design, sequential ascending (oral) multiple-close study in stable patients with heart failure. Four MAD Cohorts (A, B, C, D) were enrolled (FIG. 5B). An SRC reviewed results from each cohort and determined the close and confirmed initial sample size for the subsequent cohort. Additionally, the first 3 patients in each cohort had LVEF≥25%; the SRC reviewed preliminary safety data from these patients and decided whether to open cohort enrollment to patients with LVEF<25%.
After Screening and qualification, patients were confined to a clinical testing facility from Day 1 (Check-in) to Day 11. Each patient initially received placebo BID for 2 days (Days 1 and 2) in single-blinded manner (“run-in” during acclimatization to confinement in the Clinical Testing Unit) prior to receiving the randomized DB study drug treatment on Day 3. All patients then received either placebo or active Compound I for 7 days (Days 3 through 9), with a follow-up period with patients discharged from the unit on Day 11. A final follow-up clinic visit was conducted on Day 16. More than one patient could be closed in a cohort at the same time or during the same week depending on administrative issues, i.e., capacity and scheduling.
Patients were closed twice daily (every 12 hours). Doses could occur±2 hours from scheduled dosing times as long as closes were separated by at least 10 hours and by no more than 14 hours. The exception to the twice daily dosing was on Day 9 (last dose of randomized DB study drug treatment). On Day 9, a single morning close was administered.
During the study, multiple evaluations were performed that included: serial TTE assessments (11-14 TTEs per patient on Days 1, 2, 3, 4, 7, 9, 10 and 11); PK sampling (PK sample collected concomitantly with every post-randomization echocardiogram); ECGs (on Days 2, 3, 4, 7, 9, 10, 11 and 16); troponin (collected concomitantly with every post-randomization ECG); and safety laboratory assessments. Confined patients underwent continuous telemetry. Holter monitoring was performed in all patients at baseline (Days 1-2) and at the end of double-blind treatment (Days 7-9). Vital signs were collected daily.
Study medication consisted of Compound I 5 mg tablets, 25 mg tablets, 100 mg tablets, or matching placebo tablets. In Part 1 (SAD), Compound I or placebo was administered after an overnight fast (at least 6 hours), while in Part 2 (MAD), Compound I was administered after a 2 hour fast (Cohort A) or with food (Cohorts B, C, and D). The close was ingested with a minimum of 240 mL of water, but more water was ingested as needed. The entire close was administered over a period of up to 15 minutes. The time of close used to determine future assessments was the time the last tablet was taken. In the cohorts for Part 2 (MAD), a BID regimen was used.
In Part 2 (MAD), Cohort A patients fasted for 2 hours before and 2 hours after dosing. For example, if morning dosing occurred at 8 AM, patients could have a snack at 6 AM and a full breakfast at 10 AM. If afternoon dosing occurred at 8 PM, patients could have dinner at 6 PM and a snack at 10 PM. […] Cohort B, C, and D patients ingested food with each close.

[1] = Cohort A + C (n = 14), 75 mg BID
[2] = MAD Cohort A, 75 mg BID (4 h fasting), Mean
[3] = MAD Cohort A, 75 mg BID (4 h fasting), individual subjects
[4] = MAD Cohort B, 50 mg BID (with food), Mean
[5] = MAD Cohort B, 50 mg BID (with food), individual subjects
[6] = MAD Cohort C, 75 mg BID (with food), Mean
[7] = MAD Cohort C, 75 mg BID (with food), individual subjects

Cn1cc(S(=O)(=O)[C@@](C)(F)C2CCN(C(=O)Nc3ccon3)CC2)c(C(F)F)n1 [Compound I, (R)-4-(1-((3-(difluoromethyl)-1-methyl-1H-pyrazol-4-yl)sulfonyl)-1-fluoroethyl)-N-(isoxazol-3-yl)piperidine-1-carboxamide]
Post-dose maximum concentration, steady-state (Day 9) plasma [1]: 3862 (27.7%) ng/mL
Pre-dose concentration, steady-state (Day 9) plasma [1]: 2930 (36.8%) ng/mL
time to steady-state plasma concentrations (Cohort A, 75 mg twice daily, fasted): approximately 3 days
Post-dose maximum concentration, steady-state (Day 9) plasma (Cohort B (n = 8), 50 mg BID): 2735 (17.5%) ng/mL
Pre-dose concentration, steady-state (Day 9) plasma (Cohort B (n = 8), 50 mg BID): 2096 (20.0%) ng/mL
time to steady-state plasma concentrations (Cohort B, 50 mg twice daily with food): approximately 4 days
Post-dose maximum concentration, steady-state (Day 9) plasma (Cohort D (n = 6), 100 mg BID): 5560 (22.8%) ng/mL
Pre-dose concentration, steady-state (Day 9) plasma (Cohort D (n = 6), 100 mg BID): 4694 (25.5%) ng/mL
Accumulation Ratio AUC tau [2]: 3.74
Accumulation Ratio Cmax [2]: 3.53
Accumulation_Index [2]: 3.11
Cavg, ss [2]: 3420 ng/mL
Cmin, SS [2]: 2758 ng/mL
AUCtau, Day 1 [3]: 12360 ng·h/mL and 8025 ng·h/mL and 9501 ng·h/mL and 11570 ng·h/mL
Accumulation Ratio AUC tau [3]: 4.37 and 3.96 and 3.15* and 2.80 and 4.27 and 3.31
Accumulation Ratio Cmax [3]: 4.32 and 3.46 and 2.51* and 2.80 and 4.06 and 2.99
Accumulation_Index [3]: 3.82 and 3.89 and 2.79* and 2.21 and 3.00 and 2.61
Cavg, ss [3]: 3846 ng/mL and 4079 ng/mL and 2108* ng/mL and 2215 ng/mL and 3774 ng/mL and 3188 ng/mL
Cmax, Day 1 [3]: 1360 ng/mL and 958 ng/mL and 981 ng/mL and 1100 ng/mL and 1250 ng/mL
Cmax, SS [3]: 4710 ng/mL and 2400* ng/mL and 2750 ng/mL and 4470 ng/mL and 3740 ng/mL
Cmin, SS [3]: 3050 ng/mL and 3510 ng/mL and 1450* ng/mL and 1740 ng/mL and 2880 ng/mL and 2610 ng/mL
t1/2, λz [3]: 27.41 hr and 28.02 hr and 18.78* hr and 13.84 hr and 20.55 hr and 17.21 hr
AUC_TAU [3]: 48950 hr*ng/mL and 25290* hr*ng/mL and 26580 hr*ng/mL and 45290 hr*ng/mL and 38250 hr*ng/mL
Accumulation Ratio AUC tau [4]: 4.09
Accumulation Ratio Cmax [4]: 3.57
Accumulation_Index [4]: 3.55
Cavg, ss [4]: 2336 ng/mL
Cmin, SS [4]: 1989 ng/mL
AUCtau, Day 1 [5]: 5050 ng·h/mL and 6754 ng·h/mL and 8138 ng·h/mL and 8855 ng·h/mL and 7249 ng·h/mL and 6347 ng·h/mL and 8620 ng·h/mL
Accumulation Ratio AUC tau [5]: 4.00 and 6.37 and 5.22 and 3.26 and 4.07 and 3.30 and 3.63 and 2.88
Accumulation Ratio Cmax [5]: 3.16 and 5.33 and 4.78 and 3.08 and 4.02 and 2.64 and 3.05 and 2.51
Accumulation_Index [5]: 3.63 and 5.03 and 4.46 and 2.93 and 3.51 and 2.42 and 3.20 (2×) and 4.23*
Cavg, ss [5]: 2478 ng/mL and 2681 ng/mL and 2940 ng/mL and 2213 ng/mL and 3002 ng/mL and 1991 ng/mL and 1919 ng/mL and 2070 ng/mL and 1725* ng/mL
Cmax, Day 1 [5]: 548 ng/mL and 674 ng/mL and 830 ng/mL and 891 ng/mL and 901 ng/mL and 696 ng/mL and 974 ng/mL
Cmax, SS [5]: 2920 ng/mL and 3220 ng/mL and 2560 ng/mL and 3580 ng/mL and 2380 ng/mL and 2120 ng/mL and 2440 ng/mL and 2060* ng/mL
Cmin, SS [5]: 1900 ng/mL and 2380 ng/mL and 2640 ng/mL and 1810 ng/mL and 2370 ng/mL and 1440 ng/mL and 1720 ng/mL and 1650 ng/mL and 1320* ng/mL
t1/2, λz [5]: 25.81 hr and 37.48 hr and 32.77 hr and 19.93 hr and 24.77 hr and 15.57 hr and 22.23 hr and 22.21 hr and 30.87* hr
AUC_TAU [5]: 32170 hr*ng/mL and 35280 hr*ng/mL and 26560 hr*ng/mL and 36030 hr*ng/mL and 23890 hr*ng/mL and 23030 hr*ng/mL and 24840 hr*ng/mL and 20700* hr*ng/mL
Accumulation Ratio AUC tau [6]: 3.99
Accumulation Ratio Cmax [6]: 3.28
Accumulation_Index [6]: 3.18
Cavg, ss [6]: 3357 ng/mL
Cmin, SS [6]: 2812 ng/mL
AUCtau, Day 1 [7]: 13270 ng·h/mL and 8280 ng·h/mL and 10790 ng·h/mL and 9731 ng·h/mL and 6976 ng·h/mL and 9166 ng·h/mL and 14840 ng·h/mL and 11840 ng·h/mL
Accumulation Ratio AUC tau [7]: 2.44 and 1.90 and 3.48 and 4.61 and 7.62 and 3.88 and 2.59 and 4.85 and 4.53
Accumulation Ratio Cmax [7]: 2.17 and 1.80 and 3.20 and 4.06 and 4.80 and 2.80 and 2.38 and 4.63 and 3.68
Accumulation_Index [7]: 2.18 and 2.39 and 2.99 and 3.31 and 5.51 and 2.43 and 2.20 and 4.17 and 3.42
Cavg, ss [7]: 2695 ng/mL and 1308 ng/mL and 3126 ng/mL and 3738 ng/mL and 4432 ng/mL and 2963 ng/mL and 3206 ng/mL and 4267 ng/mL and 4474 ng/mL
